Patent US20120165346A1, “Compounds and their use as BACE inhibitors” (ASTRAZENECA AB, priority 2010, published 2012)

Key:
[1] = molecular target: T1, human β-Secretase (AA 1-AA 460), sBACE-Fc (Homo sapiens, UniProt P56817); assay: TR-FRET assay; type: biochemical; settings: enzyme 2.7 μg/ml, substrate 100 nM, pH4.5, 15 minutes at r.t.
T1 construct: soluble part of the human β-Secretase (AA 1-AA 460) was cloned; Fc domain of IgG1; made in house
Experimental: The β-secretase enzyme used in the TR-FRET is prepared as follows:
(§1) The cDNA for the soluble part of the human β-Secretase (AA 1-AA 460) was cloned using the ASP2-Fc10-1-IRES-GFP-neoK mammalian expression vector. The gene was fused to the Fc domain of IgG1 (affinity tag) and stably cloned into HEK 293 cells.
The enzyme (truncated form) was diluted to 6 μg/mL (stock 1.3 mg/mL) and the substrate (Europium)[…](Qsy7) to 200 nM (stock 120 μM) in reaction buffer (NaAcetate, is chaps, triton x-100, EDTA pH4.5). The robotic systems Biomek FX and Velocity 11 were used for all liquid handling and the enzyme and substrate solutions were kept on ice until they were placed in the robotic system. Enzyme (9 μA) was added to the plate then 1 μA of compound in dimethylsulphoxide was added, mixed and pre-incubated for 10 minutes. Substrate (10 μA) was then added, mixed and the reaction proceeded for 15 minutes at r.t. The reaction was stopped with the addition of Stop solution (7 μl, NaAcetate, pH 9). The fluorescence of the product was measured on a Victor II plate reader with an excitation wavelength of 340 nm and an emission wavelength of 615 nm. The assay was performed in a Costar 384 well round bottom, low volume, non-binding surface plate (Corning #3676). […] The dimethylsulphoxide control, instead of test compound, defined the 100% activity level and 0% activity was defined by wells lacking enzyme (replaced with reaction buffer).

[2] = test system: sAPPβ release, SH-SY5Y cells; assay: sAPPβ release assay; type: cell-based; settings: Homo sapiens, compounds incubated 17 h
Experimental: SH-SY5Y cells were cultured in DMEM/F-12 with Glutamax, 10% FCS and 1% non-essential amino acids and cryopreserved and stored at −140° C. at a concentration of 7.5−9.5×10^6 cells per vial. Thaw cells and seed at a conc. of around 10000 cells/well in DMEM/F-12 with Glutamax, 10% FCS and 1% non-essential amino acids to a 384-well tissue culture treated plate, […] cell susp/well. The cell plates were then incubated for 7-24 h at 37° C., 5% CO2. The cell medium was removed, followed by addition of 30 μL compound diluted in DMEM/F-12 with Glutamax, 10% FCS, 1% non-essential amino acids and 1% PeSt to a final conc. of 1% DMSO. The compounds were incubated with the cells for 17 h (overnight) at 37° C., 5% CO2. Meso Scale Discovery (MSD) plates were used for the detection of sAPPβ release. MSD sAPPβ plates were blocked in 1% BSA in Tris wash buffer (40 μL/well) for 1 h on shake at r.t. and washed 1 time in Tris wash buffer (40 μL/well). 20 μL of medium was transferred to the pre-blocked and washed is MSD sAPPβ microplates, and the cell plates were further used in an ATP assay to measure cytotoxicity. The MSD plates were incubated with shaking at r.t. for 2 h and the media discarded. 10 μL detection antibody was added (1 nM) per well followed by incubation with shaking at r.t. for 2 h and then discarded. 40 μL Read Buffer was added per well and the plates were read in a SECTOR Imager.

[3] = molecular target: T1, human β-Secretase (AA 1-AA 460), sBACE-Fc; assay: Diluted TR-FRET assay; type: biochemical; settings: footnote a: diluted FRET assay, 50 times less enzyme, 6.5 h reaction time at r.t.; read-out: IC50 in TR-FRET assay (IC50 from the diluted FRET assay)
Experimental: as §1
The robotic systems Biomek FX and Velocity 11 were used for all liquid handling and the enzyme and substrate solutions were kept on ice until they were placed in the robotic system. Enzyme (9 μA) was added to the plate then 1 μA of compound in dimethylsulphoxide was added, mixed and pre-incubated for 10 minutes. Substrate (10 μA) was then added, mixed and the reaction proceeded for 15 minutes at r.t. The reaction was stopped with the addition of Stop solution (7 μl, NaAcetate, pH 9). […] The dimethylsulphoxide control, instead of test compound, defined the 100% activity level and 0% activity was defined by wells lacking enzyme (replaced with reaction buffer).

T1 sequence (P56817 22-460): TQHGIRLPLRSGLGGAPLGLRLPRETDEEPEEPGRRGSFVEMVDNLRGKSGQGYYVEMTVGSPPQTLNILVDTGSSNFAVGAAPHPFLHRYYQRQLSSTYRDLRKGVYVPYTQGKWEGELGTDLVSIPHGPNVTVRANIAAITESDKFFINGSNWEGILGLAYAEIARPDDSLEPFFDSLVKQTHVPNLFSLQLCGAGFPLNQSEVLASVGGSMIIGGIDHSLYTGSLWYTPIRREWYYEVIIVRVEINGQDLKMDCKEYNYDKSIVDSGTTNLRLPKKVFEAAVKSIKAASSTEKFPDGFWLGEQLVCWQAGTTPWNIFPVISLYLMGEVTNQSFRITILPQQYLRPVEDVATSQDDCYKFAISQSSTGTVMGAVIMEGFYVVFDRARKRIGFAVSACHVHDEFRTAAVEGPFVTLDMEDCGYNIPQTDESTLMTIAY

Cn1cc(C2(c3cccc(-c4cncc(F)c4)c3)N=C(N)c3c(F)cccc32)cc(C(F)(F)F)c1=O (centres unmarked) [Example 12, 5-(3-Amino-4-fluoro-1-(3-(5-fluoropyridin-3-yl)phenyl)-1H-isoindol-1-yl)-1-methyl-3-(trifluoromethyl)pyridin-2(1H)-one] was tested, and the IC50 [1] was 62 nM and the IC50 [2] was 8 nM.

Work on CC#Cc1cncc(-c2cccc([C@@]3(c4cc(C)c(=O)n(C)c4)N=C(N)c4c(F)cccc43)c2)c1 [Example 1, (R)-5-(3-Amino-4-fluoro-1-(3-(5-(prop-1-ynyl)pyridin-3-yl)phenyl)-1H-isoindol-1-yl)-1,3-dimethylpyridin-2(1H)-one] yielded an IC50 [3] of 6 nM and an IC50 [2] of 2 nM.

CC#Cc1cncc(-c2cc(C3(c4cc(C)c(=O)n(CC)c4)N=C(N)c4c(F)cccc43)ccn2)c1 (single isomer, unassigned) [Example 26a, 5-(3-amino-4-fluoro-1-(5′-(prop-1-ynyl)-2,3′-bipyridin-4-yl)-1H-isoindol-1-yl)-1-ethyl-3-methylpyridin-2(1H)-one] was tested, and the IC50 [1] was 8350 nM.

COc1cncc(-c2cccc(C3(c4cc(C(F)(F)F)c(=O)n(C)c4)N=C(N)c4c(F)cccc43)c2)c1 (centres unmarked) [Example 11, 5-(3-Amino-4-fluoro-1-(3-(5-methoxypyridin-3-yl)phenyl)-1H-isoindol-1-yl)-1-methyl-3-(trifluoromethyl)pyridin-2(1H)-one] showed an IC50 [1] of 54 nM and an IC50 [2] of 46 nM.

In the case of Cc1cc(C2(c3cccc(-c4cncc(C#N)c4)c3)N=C(N)c3c(F)cccc32)cn(C(C)C)c1=O (centres unmarked) [Example 5, 5-(3-(3-Amino-4-fluoro-1-(1-isopropyl-5-methyl-6-oxo-1,6-dihydropyridin-3-yl)-1H-isoindol-1-yl)phenyl)nicotinonitrile], the IC50 [1] is reported as 58 nM and the IC50 [2] is reported as 10 nM.

In the case of CC#Cc1cncc(-c2cccc(C3(c4cc(C(F)F)c(=O)n(CC)c4)N=C(N)c4c(F)cccc43)c2)c1 (centres unmarked) [Example 23, 5-(3-Amino-4-fluoro-1-(3-(5-(prop-1-ynyl)pyridin-3-yl)phenyl)-1H-isoindol-1-yl)-3-(difluoromethyl)-1-ethylpyridin-2(1H)-one], the IC50 [3] is reported as 6 nM and the IC50 [2] is reported as 4 nM.

In the case of Cc1cc(C2(c3cccc(-c4cncc(F)c4)c3)N=C(N)c3c(F)cccc32)cn(C(C)C)c1=O (centres unmarked) [Example 7, 5-(3-Amino-4-fluoro-1-(3-(5-fluoropyridin-3-yl)phenyl)-1H-isoindol-1-yl)-1-isopropyl-3-methylpyridin-2(1H)-one], the IC50 [1] is reported as 38 nM and the IC50 [2] is reported as 4 nM.

CC#Cc1ccnc(-c2cccc([C@@]3(c4cc(C)c(=O)n(CC)c4)N=C(N)c4c(F)cccc43)c2)c1 [Example 25, (R)-5-(3-Amino-4-fluoro-1-(3-(4-(prop-1-ynyl)pyridin-2-yl)phenyl)-1H-isoindol-1-yl)-1-ethyl-3-methylpyridin-2(1H)-one] was tested, and the IC50 [3] was 5 nM and the IC50 [2] was 2 nM.

Work on CC#Cc1cccc(-c2cccc([C@@]3(c4cc(C)c(=O)n(CC)c4)N=C(N)c4c(F)cccc43)c2)n1 [Example 24, (R)-5-(3-Amino-4-fluoro-1-(3-(6-(prop-1-ynyl)pyridin-2-yl)phenyl)-1H-isoindol-1-yl)-1-ethyl-3-methylpyridin-2(1H)-one] yielded an IC50 [1] of 140 nM and an IC50 [2] of 22 nM.

CC#Cc1cncc(-c2cc(C3(c4cc(C)c(=O)n(CC)c4)N=C(N)c4c(F)cccc43)ccn2)c1 (centres unmarked) [Example 2, 5-(3-Amino-4-fluoro-1-(5′-(prop-1-ynyl)-2,3′-bipyridin-4-yl)-1H-isoindol-1-yl)-1-ethyl-3-methylpyridin-2(1H)-one] showed an IC50 [1] of 57 nM and an IC50 [2] of 2 nM.

Cc1cc(C2(c3cccc(-c4cncc(C#N)c4)c3)N=C(N)c3c(F)cccc32)cn(C)c1=O (centres unmarked) [Example 17, 5-(3-(3-Amino-1-(1,5-dimethyl-6-oxo-1,6-dihydropyridin-3-yl)-4-fluoro-1H-isoindol-1-yl)phenyl)nicotinonitrile] showed an IC50 [1] of 66 nM and an IC50 [2] of 17 nM.

For Cn1cc(C2(c3cccc(-c4cncnc4)c3)N=C(N)c3c(F)cccc32)cc(C(F)(F)F)c1=O (centres unmarked) [Example 13, 5-(3-Amino-4-fluoro-1-(3-(pyrimidin-5-yl)phenyl)-1H-isoindol-1-yl)-1-methyl-3-(trifluoromethyl)pyridin-2(1H)-one], the IC50 [1] was 81 nM and the IC50 [2] was 24 nM.

CCn1cc(C2(c3cccc(-c4cncc(F)c4)c3)N=C(N)c3c(F)cccc32)cc(C(F)F)c1=O (centres unmarked) [Example 22, 5-(3-Amino-4-fluoro-1-(3-(5-fluoropyridin-3-yl)phenyl)-1H-isoindol-1-yl)-3-(difluoromethyl)-1-ethylpyridin-2(1H)-one] was tested, and the IC50 [1] was 70 nM and the IC50 [2] was 9 nM.

In the case of COc1cncc(-c2cccc(C3(c4cc(C)c(=O)n(C)c4)N=C(N)c4c(F)cccc43)c2)c1 (centres unmarked) [Example 20, 5-(3-amino-4-fluoro-1-(3-(5-methoxypyridin-3-yl)phenyl)-1H-isoindol-1-yl)-1,3-dimethylpyridin-2(1H)-one], the IC50 [1] is reported as 31 nM and the IC50 [2] is reported as 6 nM.

Work on Cc1cc(C2(c3cccc(-c4cncnc4)c3)N=C(N)c3c(F)cccc32)cn(C)c1=O (centres unmarked) [Example 14, 5-(3-Amino-4-fluoro-1-(3-(pyrimidin-5-yl)phenyl)-1H-isoindol-1-yl)-1,3-dimethylpyridin-2(1H)-one] yielded an IC50 [1] of 58 nM and an IC50 [2] of 11 nM.

In the case of CC#Cc1cncc(-c2cc(C3(c4cc(CC)c(=O)n(CC)c4)N=C(N)c4c(F)cccc43)ccn2)c1 (centres unmarked) [Example 16, 5-(3-Amino-4-fluoro-1-(5′-(prop-1-ynyl)-2,3′-bipyridin-4-yl)-1H-isoindol-1-yl)-1,3-diethylpyridin-2(1H)-one], the IC50 [1] is reported as 59 nM and the IC50 [2] is reported as 1 nM.

Compound Cc1cc(C2(c3ccnc(-c4cncc(Cl)c4)c3)N=C(N)c3c(F)cccc32)cn(C)c1=O (centres unmarked) [Example 15, 5-(3-Amino-1-(5′-chloro-2,3′-bipyridin-4-yl)-4-fluoro-1H-isoindol-1-yl)-1,3-dimethylpyridin-2(1H)-one] has an IC50 [1] of 104 nM and an IC50 [2] of 14 nM.

CCn1cc([C@]2(c3cccc(-c4cncc(C)c4F)c3)N=C(N)c3c(F)cccc32)cc(C)c1=O [Example 4, (R)-5-(3-Amino-4-fluoro-1-(3-(4-fluoro-5-methylpyridin-3-yl)phenyl)-1H-isoindol-1-yl)-1-ethyl-3-methylpyridin-2(1H)-one] gave an IC50 [1] of 51 nM and an IC50 [2] of 55 nM.

With Cn1cc(C2(c3cccc(-c4cncc(C#N)c4)c3)N=C(N)c3c(F)cccc32)cc(C(F)(F)F)c1=O (centres unmarked) [Example 10, 5-(3-(3-Amino-4-fluoro-1-(1-methyl-6-oxo-5-(trifluoromethyl)-1,6-dihydropyridin-3-yl)-1H-isoindol-1-yl)phenyl)nicotinonitrile] the IC50 [1] was 89 nM and the IC50 [2] was 20 nM.

Cc1cc(C2(c3cccc(-c4cncc(Cl)c4)c3)N=C(N)c3c(F)cccc32)cn(C)c1=O (centres unmarked) [Example 18, 5-(3-Amino-1-(3-(5-chloropyridin-3-yl)phenyl)-4-fluoro-1H-isoindol-1-yl)-1,3-dimethylpyridin-2(1H)-one] showed an IC50 [1] of 26 nM and an IC50 [2] of 8 nM.

In the case of Cc1cc(C2(c3cccc(-c4cncc(F)c4)c3)N=C(N)c3c(F)cccc32)cn(C)c1=O (centres unmarked) [Example 19, 5-(3-Amino-4-fluoro-1-(3-(5-fluoropyridin-3-yl)phenyl)-1H-isoindol-1-yl)-1,3-dimethylpyridin-2(1H)-one], the IC50 [1] is reported as 61 nM and the IC50 [2] is reported as 3 nM.
